Results from patent US11834466B2, “Benzoxaborole compounds and formulations thereof” (5Metis, Inc., priority 2017, dated 2023).

What was measured:
Format in all cases: in vivo
[1] = test system: wheat/SNB (Parastangaspora nodorum); experiment: Greenhouse biological efficacy on wheat/SNB; conditions: BAG8 0.25 lb/acre at 20 gal/acre, inoculum 24 hours post spray, Example 26, Table 16, untreated control 6.750
Procedure: (§1) The BAG8 SC formulations described in Example 10 (BAG8 20% SC) and Example 12 (BAG8 40% SC) and selected BAG8 SC-tank mix formulations described in Example 23 were tested under greenhouse conditions. Data was obtained for soybean/white mold (Sclerotinia sclerotiorum), wheat/SNB (Parastangaspora nodorum), and cucubit/downy mildew. For each experiment, the BAG8 was applied at a rate of 0.25 lb/acre and at a spray rate of 20 gal/acre. Various BAG8 EC formulations, the BAG8 WP formulation described in Example 18, and selected BAG8 SC-tank mix formulations described in Example 23 were tested under greenhouse conditions. Data was obtained for soybean/white mold (Sclerotinia sclerotiorum), wheat/SNB (Parastangaspora nodorum), and cucurbit/downy mildew. For each experiment, the BAG8 was applied at a rate of 0.25 lb/acre at a spray rate of 20 gal/acre (40 mL of spray solution prepared). All inoculum was applied 24 hours post BAG8 spray. Unformulated BAG8 was applied to the plants by dissolving BAG8 in a 30% acetone-70% water solution.

[2] = test system: soybean/white mold (Sclerotinia sclerotiorum); experiment: Greenhouse biological efficacy on soybean/white mold; conditions: BAG8 0.25 lb/acre at 20 gal/acre, inoculum 24 hours post spray, Example 29, Table 19, untreated control 7.333
Procedure: as §1

cucurbit/downy mildew = experiment: Greenhouse biological efficacy on cucurbit/downy mildew; conditions: BAG8 0.25 lb/acre at 20 gal/acre, inoculum 24 hours post spray
Procedure: as §1

## OB1OCc2cc(Cl)ccc21 [BAG8, 5-chlorobenzo[c][1,2]oxaborol-1(3H)-ol]
[1]
  Mean Disease Severity: 5.750
[2]
  Mean Disease Severity: 5.333
cucurbit/downy mildew; Cucumber/Downy Mildew, Example 29, Table 20, untreated control 7.417
  Mean Disease Severity: 5.833
cucurbit/downy mildew; Curcurbit/Downy Mildew, Example 27, Table 17, untreated control 8.364
  Mean Disease Severity: 2.000
cucurbit/downy mildew; Curcurbit/Downy Mildew, Example 28, Table 18, untreated control 6.667
  Mean Disease Severity: 5.833
